Biological target: T1, human DGAT1 enzyme (Homo sapiens, UniProt O75907)
T1 construct: made in house; host or cells: Sf9 insect cells (microsomal membranes)
T1 sequence (O75907 1-488): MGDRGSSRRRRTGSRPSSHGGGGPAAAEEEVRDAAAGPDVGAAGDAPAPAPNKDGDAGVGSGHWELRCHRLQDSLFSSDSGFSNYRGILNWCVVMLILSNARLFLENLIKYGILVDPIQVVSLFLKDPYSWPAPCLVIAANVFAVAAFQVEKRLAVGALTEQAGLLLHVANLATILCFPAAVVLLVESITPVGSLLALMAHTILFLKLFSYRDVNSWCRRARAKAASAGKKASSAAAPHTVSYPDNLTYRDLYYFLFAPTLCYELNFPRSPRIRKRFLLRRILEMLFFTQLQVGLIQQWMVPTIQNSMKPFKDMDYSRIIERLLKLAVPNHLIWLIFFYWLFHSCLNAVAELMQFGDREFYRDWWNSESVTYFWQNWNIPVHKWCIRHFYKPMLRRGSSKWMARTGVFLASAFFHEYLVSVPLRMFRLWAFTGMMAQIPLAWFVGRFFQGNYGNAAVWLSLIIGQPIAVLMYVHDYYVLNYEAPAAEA
Assay: in vitro DGAT1 inhibition assay (microsomes, [14C]-palmitoyl-CoA, SPA beads)
Type: biochemical
Settings: human DGAT1 expressed in Sf9 insect cells, microsomes; 2 hours at room temperature; read-out: IC50
Procedure: The in vitro assay to identify DGAT1 inhibitors uses human DGAT1 enzyme expressed in Sf9 insect cells prepared as microsomes. The reaction was initiated by the addition of the combined substrates 1,2-dioleoyl-sn-glycerol and [^14C]-palmitoyl-Co A and incubated with test compounds and microsomal membranes for 2 hours at room temperature. The assay was stopped by adding 0.5 mg wheat germ agglutinin beads in assay buffer with 1% Brij-35 and 1% 3-cholamidopropyldimethyl-ammonio-1-propane sulfonate. Plates were sealed with TopSeal and incubated for 18 hours to allow the radioactive triglyceride product to come into proximity with the bead. Plates were read on a TopCount instrument.
Percent inhibition was calculated as the percent of (test compound inhibition minus non-specific binding) relative to (total binding minus non-specific binding). IC50 values were determined by curve fitting the data to a Sigmoidal dose-response in GraphPad Prism utilizing the following equation:
Y=A+(B−A)/(1+10̂((Log IC50−X))),
where A and B are the bottom and top of the curve (highest and lowest inhibition), respectively, and X is the logarithm of concentration.

| Compound | IC50 [nM] |
| --- | --- |
| Cc1ccc2c(C)c(C(=O)Nc3ccc(N4CCC(OCc5cccc(C(=O)O)c5)CC4)nc3)oc2c1C [Example 87, 3-((1-(5-(3,6,7-trimethylbenzofuran-2-carboxamido)pyridin-2-yl)piperidin-4-yloxy)methyl)benzoic acid] | 22 |
| Cc1c(C(=O)Nc2ccc(N3CCC(COc4cccc(C(=O)O)c4)CC3)nc2)oc2ccccc12 [Example 91, 3-((1-(5-(3-methylbenzofuran-2-carboxamido)pyridin-2-yl)piperidin-4-yl)methoxy)benzoic acid] | 84 |
| Cc1c(C(=O)Nc2ccc(N3CCC(COc4cccc(C(=O)O)c4)CC3)nc2)oc2ccc(Cc3ccccc3)cc12 [Example 93, 3-((1-(5-(5-benzyl-3-methylbenzofuran-2-carboxamido)pyridin-2-yl)piperidin-4-yl)methoxy)benzoic acid] | 56 |
| ethyl 2-(4-(5-(5-(4-methoxyphenyl)-3-methylbenzofuran-2-carboxamido)pyridin-2-yl)piperazine-1-carboxamido)benzoate [Example 66] | 454 |

The remaining lines, values ahead:

| IC50 [nM] | Compound |
| --- | --- |
| 71 | Cc1c(C(=O)Nc2ccc(N3CCC(COc4cccc(C(=O)O)c4)CC3)nc2)oc2ccc(Oc3ccccc3)cc12 [Example 94, 3-((1-(5-(3-methyl-5-phenoxybenzofuran-2-carboxamido)pyridin-2-yl)piperidin-4-yl)methoxy)benzoic acid] |
| 6 | Cc1c(C(=O)Nc2ccc(-c3ccc(OC4CCC(C(=O)O)CC4)nc3)nc2)oc2ccc(-c3ccccc3)cc12 (stereo not drawn) [Example 95, 4-(5-(3-methyl-5-phenylbenzofuran-2-carboxamido)-2,3′-bipyridin-6′-yloxy)cyclohexanecarboxylic acid] |

Reference: US20120172369A1 (priority 2009, published 2012)
